Data on 19 compounds can be found in patent EP4206196A1, “PYRIMIDINE SUBSTITUTED DERIVATIVES AS TYK2 INHIBITORS” (Almirall S.A., priority 2021, dated 2023).

For experiment [1], the target named is T1, TYK2 (JH2domain-pseudokinase) (Homo sapiens, UniProt P29597).
T1 construct: TYK2 (JH2domain-pseudokinase)-tagged T7 phage strains were prepared in an E. coli host derived from the BL21 strain; made in house; host or cells: E. coli BL21-derived host (T7 phage) or HEK-293 cells
Description: TYK2 JH2 domain binding assay (KINOMEscan). The procedure, abridged: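 Kd values come from nonlinear least-squares fits of 11-point 3-fold dilutions (mostly 30,000 nM top, lowered when Kd fell below 0.5 nM). Test compound competed with bead-bound biotinylated ligand for qPCR-tagged TYK2 pseudokinase (JH2) domain, shaken 1 h at room temperature, with about 1% final DMSO.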

Experiment [2] has as its system STAT1/3 through TYK2/JAK1. Description: IFNa induced STAT phosphorylation in HEK293 cells (SIE-bla reporter gene). As to conditions: Homo sapiens, HEK293; HEK293T-sie-bla cells, IFNa at EC80, 4 hours; read-out: Inhibition of IFNa induced STAT phosphorylation HEK293 cells IC50. It counts as cell-based. The procedure, abridged:
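Read-out was FRET from a β-lactamase reporter under a SIE promoter in HEK293T cells, with substrate added after a 4 h, 37°C co-incubation of compound and EC80 IFNa and left overnight in the dark. Compounds ran as 10-point 1/5 dilutions at 0.1% final DMSO; four-parameter log fit gave IC50.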
Background: Reporter assays use an easily measured gene product as a stand-in for the process of interest.

The subject of experiment [3] is STAT6 through JAK1/JAK3. Description: IL4 induced STAT phosphorylation in Ramos cells (STAT6-bla reporter gene). The conditions noted are these: for inhibition at 5 µM / inhibition at 25 µM: Homo sapiens, Ramos; for inhibition at 25 µM: compound concentration 25 µM. Format: cell-based. On the procedure:
Stimulation of RAMOS cells with interleukine IL-4 activates the signaling pathway of STAT6 through JAK1/JAK3. In this assay, measurement of the activity of the reporter gene β-lactamase expression was used as the readout.
Ramos STAT6-bla RA-1 cell line were purchased from Life Technologies (ref. #K1243) and cultured as specified by the provider. A number of 30.000 cells per well (35 µl) were plated in a 384-well plate (Corning ref.# 3712) and cultured overnight at 37°C with 5% CO2 in a complete Optimem media (Life Technologies ref. #11058-021) containing 556 µg/mL CD40 (Life Technologies ref. #PHP0025), 0.5% (v/v) heat inactivated FBS (Life Technologies ref. #10082-147), 10 µM non-essential aminoacids NEAA (Sigma ref. #M7145), 100 µM Sodium Pyruvate (Gibco ref. #11360-039) and 100 U/mL Penicillin (Sigma ref. #P0781). Compounds were initially dissolved in 100% DMSO. Compound curves were then prepared using a 1/5 serial dilution (10 dilutions). The dilutions were directly diluted in complete Optimem media without CD40 at 40-fold their final concentration in 20% DMSO. IL-4 initial solution (Prepotech ref. #200-04) was prepared at 10-fold its EC80 in complete Optimem media without CD40. Compounds and IL-4 were added simultaneously to the wells with cells and incubated during 4 hours at 37°C (the final DMSO was 0.1%). The β-lactamase substrate (LifeTechnologies ref.#K1138) was prepared at 6-fold its final concentration as specified by the provider. Then 10 µL of the mixture was added to the wells to stop the stimulation. Plate was left in the dark over-night. Then a FRET reading was performed on an appropriate plate reader.
All experiments were analysed using an ExcelFit template and the four-parameter log equation. As % vs compound concentration. TABLE 3: Inhibition of IL4 induced STAT phosphorylation in Ramos cells.

pIC50, pKd: −log10 of the molar value. Several values for one entry are separate records, joined by “and”; a condition that tells them apart may be missing. Identical values can stand only once.

T1 sequence (P29597 589-875 limits assumed): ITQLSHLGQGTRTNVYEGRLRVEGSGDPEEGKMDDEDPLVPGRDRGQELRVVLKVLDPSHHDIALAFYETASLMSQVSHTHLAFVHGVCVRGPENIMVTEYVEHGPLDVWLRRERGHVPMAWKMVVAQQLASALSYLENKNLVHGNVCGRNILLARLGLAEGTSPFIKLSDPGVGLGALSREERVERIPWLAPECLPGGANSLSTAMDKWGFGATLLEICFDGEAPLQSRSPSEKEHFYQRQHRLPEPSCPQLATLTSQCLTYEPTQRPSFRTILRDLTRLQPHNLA

One may read the pKd as −log10 of the Kd, conventionally taken in molar units. Higher therefore signals a small Kd. Broadly, the pIC50 is the IC50 on a negative log10 scale, so that one unit is a factor of ten. The term inhibition denotes how much of the control response was suppressed. Low values mean little suppression, high ones strong suppression. Consider `COc1c(Nc2cc(NC(=O)C3CC3)ncn2)cccc1-c1ncn(C)n1` [Example 1, N-[6-[2-methoxy-3-(1-methyl-1,2,4-triazol-3-yl)anilino]pyrimidin-4-yl]cyclopropanecarboxamide], for which the negative-log Kd (pKd) in experiment [1] is 8.00 to 9.00. Besides, the pIC50 in experiment [2] was 6.00 to 7.00. In experiment [3] (compound concentration 5 µM), this compound yielded an inhibition at 5 µM of 25%.
`COc1c(Nc2cc(Nc3cc(C)nc(C)n3)ncn2)cccc1-c1ncn(C)n1` [Example 4, N6-(2,6-dimethylpyrimidin-4-yl)-N4-[2-methoxy-3-(1-methyl-1,2,4-triazol-3-yl)phenyl]pyrimidine-4,6-diamine]: the pKd in experiment [1] is 9.00 to 9.70. Further, the pIC50 in experiment [2] was 7.00 to 8.00. This compound returned an inhibition at 5 µM in experiment [3] (compound concentration 5 µM) of 33%.
As for `COc1c(C)cccc1Nc1cc(Nc2cc(C)nc(C)n2)ncn1` [Example 6, N6-(2,6-dimethylpyrimidin-4-yl)-N4-(2-methoxy-3-methyl-phenyl)pyrimidine-4,6-diamine], the pKd in experiment [1] is 9.00 to 9.70. The pIC50 in experiment [2] was 7.00 to 8.00. In addition, in experiment [3] (compound concentration 5 µM), at 5 µM the inhibition was 62%.
Compound `Cc1cc(Nc2cc(Nc3ccccc3N(C)S(C)(=O)=O)ncn2)nc(C)n1` [Example 12, N-[2-[[6-[(2,6-dimethylpyrimidin-4-yl)amino]pyrimidin-4-yl]amino]phenyl]-N-methyl-methanesulfonamide] showed a pKd in experiment [1] greater than 9.70. In addition, the pIC50 in experiment [2] was less than 6.00. For the same compound, the inhibition at 5 µM in experiment [3] (compound concentration 5 µM) worked out at 46%.
For the compound `Cc1cc(Nc2cc(Nc3ccc(-c4cnn(C)c4C)cc3N(C)S(C)(=O)=O)ncn2)nc(C)n1` [Example 25, N-[5-(1,5-dimethylpyrazol-4-yl)-2-[[6-[(2,6-dimethylpyrimidin-4-yl)amino]pyrimidin-4-yl]amino]phenyl]-N-methyl-methanesulfonamide], in experiment [1], the pKd is greater than 9.70. In addition, the pIC50 in experiment [2] was greater than 8.00. The inhibition at 5 µM in experiment [3] (compound concentration 5 µM) was 57%.
For `CN(c1ccccc1Nc1cc(Nc2cccc(C#N)n2)ncn1)S(C)(=O)=O` [Example 32, N-[2-[[6-[(6-cyano-2-pyridyl)amino]pyrimidin-4-yl]amino]phenyl]-N-methyl-methanesulfonamide], in that order: greater than 9.70, greater than 8.00 and 70%.
In the case of `COc1c(Nc2cc(Nc3cc(C)nc(C)n3)ncn2)cccc1-c1noc(C)n1` [Example 37, N4-(2,6-dimethylpyrimidin-4-yl)-N6-[2-methoxy-3-(5-methyl-1,2,4-oxadiazol-3-yl)phenyl]pyrimidine-4,6-diamine], the pKd in experiment [1] was greater than 9.70. For the same compound, the pIC50 in experiment [2] is 7.00 to 8.00. The inhibition at 5 µM in experiment [3] (compound concentration 5 µM) stood at 44%.
In experiment [1], `Cc1cc(Nc2cc(Nc3ccc(C4CC4)cc3N(C)S(C)(=O)=O)ncn2)nc(C)n1` [Example 70, N-[5-cyclopropyl-2-[[6-[(2,6-dimethylpyrimidin-4-yl)amino]pyrimidin-4-yl]amino]phenyl]-N-methyl-methanesulfonamide] gave a pKd greater than 9.70. Further, the pIC50 in experiment [2] is greater than 8.00. In experiment [3] (compound concentration 5 µM, 5 µM), the “% Inhibition of IL4 induced STAT phosphorylation Ramos cells” value is 78% and 55%.
Take `COc1cc(-c2cnn(C)c2C)ccc1Nc1cc(Nc2cc(C)nc(C)n2)ncn1` [Example 80, N6-[4-(1,5-dimethylpyrazol-4-yl)-2-methoxy-phenyl]-N4-(2,6-dimethylpyrimidin-4-yl)pyrimidine-4,6-diamine]: the pKd in experiment [1] was greater than 9.70. In addition, in experiment [2], the pIC50 was 7.00 to 8.00. This compound also displayed an inhibition at 5 µM in experiment [3] (compound concentration 5 µM) of 47%.
Compound `Cc1cc(Nc2cc(Nc3ccc(-c4cnn(C)c4C)cc3S(C)(=O)=O)ncn2)nc(C)n1` [Example 86, N4-[4-(1,5-dimethylpyrazol-4-yl)-2-methylsulfonyl-phenyl]-N6-(2,6-dimethylpyrimidin-4-yl)pyrimidine-4,6-diamine] showed a pKd in experiment [1] greater than 9.70. In experiment [2], the pIC50 is greater than 8.00. In experiment [3], this compound had an inhibition at 25 µM of 78%.
`Cc1cc(Nc2cc(Nc3ncc(-c4cnn(C)c4C)cc3N(C)S(C)(=O)=O)ncn2)ncc1F` [Example 103, N-[5-(1,5-dimethylpyrazol-4-yl)-2-[[6-[(5-fluoro-4-methyl-2-pyridyl)amino]pyrimidin-4-yl]amino]-3-pyridyl]-N-methyl-methanesulfonamide] had a pKd in experiment [1] greater than 9.70. Besides, the pIC50 in experiment [2] was greater than 8.00. In experiment [3] (compound concentration 5 µM), testing at 5 µM gave an inhibition of 49%.
The like results for `COc1c(-c2ncn(C)n2)ccnc1Nc1cc(Nc2cc(C)nc(C)n2)ncn1` [Example 119, N6-(2,6-dimethylpyrimidin-4-yl)-N4-[3-methoxy-4-(1-methyl-1,2,4-triazol-3-yl)-2-pyridyl]pyrimidine-4,6-diamine] were, in that order, greater than 9.70, greater than 8.00 and 47%.
For `Cc1cc(Nc2cc(Nc3ncc(-c4cnn(C)c4C)cc3N(C)S(C)(=O)=O)ncn2)nc(C)n1` [Example 124, N-[5-(1,5-dimethylpyrazol-4-yl)-2-[[6-[(2,6-dimethylpyrimidin-4-yl)amino]pyrimidin-4-yl]amino]-3-pyridyl]-N-methyl-methanesulfonamide], in that order: greater than 9.70, greater than 8.00 and 50%.
Take `Cc1cc(Nc2cc(Nc3ncccc3S(C)(=O)=O)ncn2)nc(C)n1` [Example 125, N4-(2,6-dimethylpyrimidin-4-yl)-N6-(3-methylsulfonyl-2-pyridyl)pyrimidine-4,6-diamine]: in experiment [1], the pKd is greater than 9.70. Moreover, in experiment [2], the pIC50 was greater than 8.00. In experiment [3] (compound concentration 5 µM), this compound gave an inhibition at 5 µM of 46%.
As to `Cc1cc(Nc2cc(Nc3ncc(-c4cnn(C)c4)cc3N(C)S(C)(=O)=O)ncn2)nc(C)n1` [Example 126, N-[2-[[6-[(2,6-dimethylpyrimidin-4-yl)amino]pyrimidin-4-yl]amino]-5-(1-methylpyrazol-4-yl)-3-pyridyl]-N-methyl-methanesulfonamide], the pKd in experiment [1] was greater than 9.70. Also, in experiment [2], the pIC50 is greater than 8.00. Moreover, the inhibition at 25 µM in experiment [3] worked out at 54%.
In experiment [1], `Cc1cc(Nc2cc(Nc3ncc(-c4cnn(C)c4C)cc3N(C)S(C)(=O)=O)ncn2)ncn1` [Example 135, N-[5-(1,5-dimethylpyrazol-4-yl)-2-[[6-[(6-methylpyrimidin-4-yl)amino]pyrimidin-4-yl]amino]-3-pyridyl]-N-methyl-methanesulfonamide] gave a pKd greater than 9.70. Moreover, the pIC50 in experiment [2] was 6.00 to 7.00. Also, the inhibition at 5 µM in experiment [3] (compound concentration 5 µM) was 37%.
Regarding `Cc1cc(Nc2cc(Nc3ncc(-c4cnn(C)c4C)cc3S(C)(=O)=O)ncn2)nc(C)n1` [Example 137, N4-[5-(1,5-dimethylpyrazol-4-yl)-3-methylsulfonyl-2-pyridyl]-N6-(2,6-dimethylpyrimidin-4-yl)pyrimidine-4,6-diamine], the pKd in experiment [1] is greater than 9.70. In experiment [2], the pIC50 is greater than 8.00. In experiment [3], this compound had an inhibition at 25 µM of 0%.
In the case of `Cc1c(-c2cnc(Nc3cc(Nc4ccc(F)cn4)ncn3)c(N(C)S(C)(=O)=O)c2)cnn1C` [Example 138, N-[5-(1,5-dimethylpyrazol-4-yl)-2-[[6-[(5-fluoro-2-pyridyl)amino]pyrimidin-4-yl]amino]-3-pyridyl]-N-methyl-methanesulfonamide], in experiment [1], the pKd is greater than 9.70. Also, the pIC50 in experiment [2] is greater than 8.00. In experiment [3] (compound concentration 5 µM), this compound had an inhibition at 5 µM of 6%.
The like results for `Cc1c(-c2cnc(Nc3cc(NC(=O)C4CC4)ncn3)c(N(C)S(C)(=O)=O)c2)cnn1C` [Example 139, N-[6-[[5-(1,5-dimethylpyrazol-4-yl)-3-[methyl(methylsulfonyl)amino]-2-pyridyl]amino]pyrimidin-4-yl]cyclopropanecarboxamide] were, in that order, greater than 9.70, greater than 8.00 and 28%.
